From patent publication EP4759810A1, “PROTAC TARGETING BCL-XL PROTEIN AND USE THEREOF” (BEIJING SUNCELL BIO-MEDICAL CO., LTD., priority 2023, dated 2025)

Key:
[1] = Metabolic stability assay in liver microsomes (human); assay type: in vitro ADME
In short: (§1)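 Human or mouse liver microsomes at 0.5 mg/mL with 1 µM compound at 37 °C, plus or minus NADPH; samples at 0–60 min quenched in cold acetonitrile with internal standards, analysed by LC-MS/MS. Half-life and intrinsic clearance from linear fit of ln % remaining versus time.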

[2] = Metabolic stability assay in liver microsomes (mouse); assay type: in vitro ADME
In short: as §1

HEF cells = test: Senescent cell killing activity test, HEF cell model (CCK-8); assay type: cell-based, human; conditions: for activity for killing senescent cells at lower concentrations compared to A-1331852: HEF cell model, 0.01 µM and 0.03 µM; for killing senescent HEF cells: etoposide-induced senescent vs normal HEF cells, Figures 3A-3F; for toxicity on normal non-senescent HEF cells: higher concentration (25 µM)
MRC5 cells = test: Senescent cell killing activity test, MRC5 cell model (CCK-8); assay type: cell-based, human
Description: (§2) To avoid replication of the induced senescent cells, low-passage proliferating HEF cells (<10 passages), MRC5 cells (<6 passages), and BJ cells (<10 passages) were used as normal controls. For chemical drug induced senescence, HEF cells were treated with 10 µM etoposide (Selleck, S1225) for 36-48 hours, MRC5 cells were treated with 5 µM bleomycin (Selleck, S1225) for 72 hours, and BJ cells were treated with 10 µg/mL bleomycin for 72 hours. Three days after the treatment, the cells were subcultured in fresh culture medium at a 1:3 ratio for 72 hours before further analysis and use.
(§3) Non-senescent and induced-senescent HEF cells, non-senescent and induced-senescent MRC5 cells, and non-senescent and induced-senescent BJ cells were respectively digested with trypsin, and centrifuged at 1000 rpm for 5 minutes. Then, the supernatant was removed, and the cells were resuspended in fresh DMEM culture medium containing 10% fetal bovine serum for counting. The cell density was adjusted so that the non-senescent cell density was 4000 cells/100 µL and the senescent cell density was 7000 cells/100 µL. 100 µL of the cell suspension was added to each well of a 96-well transparent cell culture plate. It was noted that the edge wells of the 96-well plate were not used as testing wells, and 300 µL of PBS alone was added to these wells to reduce evaporation of the culture medium. The 96-well plates with the well-plated cells were placed back in a 37°C incubator for overnight culture until the cells adhered. On the next day, the small molecule compounds to be tested were prepared and added after the cells had adhered.
(§4) A series of small molecule concentration gradients (0.01, 0.03, 0.1, 0.3, 1, 3, 10, and 25 µM) were pre-set, and a series of 2× drug dilutions for the above concentrations were prepared in DMEM culture medium containing 10% fetal bovine serum. 100 µL of the above DMEM culture medium containing the gradient concentrations of the drug was added to each well of the 96-well plate that had been well-plated with cells, so that the final drug concentration in each well was the pre-set series of concentrations. Three replicate wells were used for each test drug concentration. The 96-well plates were placed back in a 37°C incubator, and cell viability was measured after three days.
(§5) Three days after adding the drug, the plates were taken out, and the supernatant was discarded. 100 µL of pre-prepared CCK-8 working solution was added to each well. The CCK-8 working solution was obtained through diluting a CCK-8 stock solution (C0041, Beyotime) with a serum-free DMEM culture medium by 10-fold volumn. The 96-well plates containing the CCK-8 working solution were placed back in the 37°C incubator and incubated for 0.5-2 hours. The plates were then taken out, and the absorbance value (OD value) of each well was measured at a wavelength of 450 nm. The cell viability in each experimental group was calculated according to the following formula: Relative cell viability (%) = (Blank control group - Experimental group) / Blank control group × 100%.

BJ cells = test: Senescent cell killing activity test, BJ cell model (CCK-8); assay type: cell-based, human; conditions: Figures 3M-3O
Description: as §2, §3, §4, §5

[3] = human liver microsomes 0.5 mg/mL, 1 µM compound, 37°C
[4] = mouse liver microsomes 0.5 mg/mL, 1 µM compound, 37°C

Clint [1, 3] | half-life at 1 µM [1, 3] | microsomal CLint at 1 µM ([1]; human liver microsomes, read-out: clearance rate (metabolic clearance rate)) | Clint [2, 4] | half-life at 1 µM [2, 4] | microsomal CLint at 1 µM ([2]; mouse liver microsomes, read-out: clearance rate (metabolic clearance rate)) | SMILES | activity for killing senescent cells at lower concentrations compared to A-1331852 (HEF cells) | killing senescent HEF cells (HEF cells) | toxicity on normal non-senescent HEF cells (HEF cells) | activity for killing senescent cells at lower concentrations compared to A-1331852 (MRC5 cells; 0.01 µM and 0.03 µM) | selectivity for senescent cells (MRC5 cells; Figures 3G-3L) | killing effects for senescent cells (BJ cells; bleomycin-induced senescent skin-derived BJ cell model) | killing effect for the normal early-passage BJ cells (BJ cells; normal BJ cells)
2.77 µL/min/mg protein | 8.34 h | 2.77 µL/min/mg | 4.30 µL/min/mg protein | 5.37 h | 4.3 µL/min/mg | O=C1CCC(N2C(=O)c3cccc(NCCN4CCC(CN5CCN(CC#Cc6ccc(OCCCc7ccc(N8CCc9cccc(C(=O)Nc%10nc%11ccccc%11s%10)c9C8)nc7C(=O)O)c(F)c6)CC5)CC4)c3C2=O)C(=O)N1 (stereo not shown) [APQ2] | better activity for killing senescent cells at lower concentrations | efficiently and selectively kill senescent HEF cells | no toxicity on normal non-senescent HEF cells | – | – | – | –
– | – | – | – | – | – | O=C1CCN(c2ccc(N3CCC(CN4CCN(CC#Cc5ccc(OCCCc6ccc(N7CCc8cccc(C(=O)Nc9nc%10ccccc%10s9)c8C7)nc6C(=O)O)c(F)c5)CC4)CC3)cc2)C(=O)N1 [APQ10] | better activity for killing senescent cells at lower concentrations | efficiently and selectively kill senescent HEF cells | no toxicity on normal non-senescent HEF cells | superior to that of A-1331852 | better selectivity for senescent cells | highly selective and potent killing effects for senescent cells | without significant killing effect for the normal early-passage BJ cells
